Experimental data as given in US4521598A, “3-Azidocephalosporins” (priority 1983, dated 1985).
In brackets after ≈: the same amount, converted by molar mass. Structures can show the parent of a compound that is named as a salt. Where two headings read alike, the source gives them in different places.

Columns and labels:
Staphylococcus aureus [1] = assay: Disc plate assay, zone of inhibition; format: cell-based; conditions: for zone of inhibition at 3000 µg/mL: read-out: Zone of Inhibition (mm. diam.)
Bacillus subtilis = assay: Disc plate assay, zone of inhibition; format: cell-based; conditions: for zone of inhibition at 3000 µg/mL: read-out: Zone of Inhibition (mm. diam.)
[2] = tested on: Bacillus stearothyermophilus; assay: Disc plate assay, zone of inhibition; format: cell-based; conditions: for zone of inhibition at 3000 µg/mL: read-out: Zone of Inhibition (mm. diam.)
Micrococcus luteus = assay: Disc plate assay, zone of inhibition; format: cell-based; conditions: for zone of inhibition at 3000 µg/mL: read-out: Zone of Inhibition (mm. diam.)
Escherichia coli [3] = assay: Disc plate assay, zone of inhibition; format: cell-based; conditions: for zone of inhibition at 3000 µg/mL: read-out: Zone of Inhibition (mm. diam.)
[4] = tested on: Trichophyton mentagrophytes; assay: Disc plate assay, zone of inhibition; format: cell-based
Description: (§1) The 7-acylamino-3-azido-3-cephem-4-carboxylic acids and the salts thereof inhibit the growth of bacteria pathogenic to man and animals. […] For example, 7β-(2-thienylacetamido)-3-azido-3-cephem-4-carboxylic acid inhibited the growth of various organisms as shown in the following Table 1.
(§2) ^1 concentration 1 mg./ml.
(§3) The 3-amino-2-substituted-3-cephem compounds (formula 5) as the free acids or salts thereof and the bicyclo nonenes (formula 6) as the free acids or salts thereof are antibacterial agents which inhibit the growth of bacteria pathogenic to man and animals. In Table 3 below the in vitro antibacterial properties of the three isomeric products represented by formulae 5 and 6 obtained in the disc-plate method is tabulated.

Pseudomonas solanacearum = assay: microbe, parasite or virus in culture; format: cell-based; conditions: Ralstonia solanacearum; for zone of inhibition at 3000 µg/mL: read-out: Zone of Inhibition (mm. diam.)
Candida albicans = assay: Disc plate assay, zone of inhibition; format: cell-based
Description: as §1, §2, §3

Proteus vulgaris = assay: Disc plate assay, zone of inhibition; format: cell-based
Staphylococcus aureus [5] = assay: Agar dilution method, MIC; format: cell-based
Streptococcus pneumoniae = assay: Agar dilution method, MIC; format: cell-based; conditions: strain Park
Escherichia coli [6] = assay: Agar dilution method, MIC; format: cell-based
Streptococcus sp. D = assay: Agar dilution method, MIC; format: cell-based
Proteus = assay: Agar dilution method, MIC; format: cell-based; conditions: strains of Proteus
Klebsiella pneumoniae = assay: Agar dilution method, MIC; format: cell-based
Pseudomonas = assay: Agar dilution method, MIC; format: cell-based; conditions: strains of Pseudomonas
Enterobacter aerogenes = assay: Agar dilution method, MIC; format: cell-based
Salmonella typhi = assay: Agar dilution method, MIC
Haemophilus influenzae = assay: Agar dilution method, MIC; format: cell-based
[7] = tested on: Streptococcus epidermidis; assay: Agar dilution method, MIC; format: cell-based
Pseudomonas aeruginosa = assay: Disc plate assay, zone of inhibition; format: cell-based; conditions: concentration 1 mg./ml.
Description: as §1, §2

[8] = tested on: Saccharomyces postorianus; assay: Disc plate assay, zone of inhibition; format: cell-based; conditions: concentration 1 mg./ml.
Description: as §1, §2

Serratia marcescens = assay: Disc plate assay, zone of inhibition; format: cell-based; conditions: concentration 1 mg./ml.
Description: as §1, §2

Salmonella gallinarum = assay: Disc plate assay, zone of inhibition; format: cell-based; conditions: Salmonella enterica, concentration 1 mg./ml.
Description: as §1, §2

Enterobacter cloacae = assay: Agar dilution method, MIC; format: cell-based
Streptococcus pyogenes = assay: Agar dilution method, MIC; format: cell-based; conditions: strain C203
Serratia = assay: Agar dilution method, MIC; format: cell-based; conditions: strains of Serratia

COC1=N[C@@H](C(=O)[O-])N2C(=O)[C@H](NC(=O)Cc3cccs3)[C@@H]2SC1.[Na+] [Compound A, [2R-(2α,7α,8β)],-4-Methoxy-9-oxo-8-[(2-thienylacetyl)-amino]-6-thia-1,3-diazabicyclo[5.2.0]non-3-ene-2-carboxylic acid sodium salt]
Zone of Inhibition (mm. diam.) (Staphylococcus aureus [1]; Concentration: 3 mg./ml.): 18 mm
Zone of Inhibition (mm. diam.) (Bacillus subtilis; Concentration: 3 mg./ml.): 15 mm
Zone of Inhibition (mm. diam.) ([2]; Concentration: 3 mg./ml.): 11 mm
Zone of Inhibition (mm. diam.) (Micrococcus luteus; Concentration: 3 mg./ml.): 10 mm
Zone of Inhibition (mm. diam.) (Escherichia coli [3]; Concentration: 3 mg./ml.): 12 mm
Zone of Inhibition (mm. diam.) ([4]; Concentration: 3 mg./ml.): tr.

COC1=NCS[C@@H]2[C@H](NC(=O)Cc3cccs3)C(=O)N2[C@H]1C(=O)O [Compound B, [2R-(2α,7α,8β)],-3-Methoxy-9-oxo-8-[(2-thienylacetyl)-amino]-6-thia-1,4-diaza[5.2.0]non-3-ene-2-carboxylic acid sodium salt]
zone of inhibition at 3000 µg/mL (Staphylococcus aureus [1]; Staphylococcus aureus, Concentration: 3 mg./ml.): 29 mm
zone of inhibition at 3000 µg/mL (Bacillus subtilis; Bacillus subtilis, Concentration: 3 mg./ml.): 27 mm
zone of inhibition at 3000 µg/mL ([2]; Bacillus, Concentration: 3 mg./ml.): 34 mm
zone of inhibition at 3000 µg/mL (Pseudomonas solanacearum): 12 mm
zone of inhibition at 3000 µg/mL (Micrococcus luteus; Micrococcus luteus, Concentration: 3 mg./ml.): 25 mm
zone of inhibition at 3000 µg/mL (Escherichia coli [3]; Escherichia coli, Concentration: 3 mg./ml.): 25 mm
zone of inhibition at 3000 µg/mL (Candida albicans; Candida albicans, Concentration: 3 mg./ml., read-out: Zone of Inhibition (mm. diam.)): 13 mm

COC1S[C@@H]2[C@H](NC(=O)Cc3cccs3)C(=O)N2C(C(=O)[O-])=C1N.[Na+] (stereo partly drawn) [Compound C, Sodium 7β-[(2-thienylacetyl)amino]-2-methoxy-3-amino-3-cephem-4-carboxylate]
zone of inhibition at 3000 µg/mL (Staphylococcus aureus [1]; Staphylococcus aureus): 29 mm
Zone of Inhibition (mm. diam.) (Proteus vulgaris; Concentration: 3 mg./ml.): tr.
zone of inhibition at 3000 µg/mL (Bacillus subtilis; Bacillus subtilis): 30 mm
zone of inhibition at 3000 µg/mL ([2]; Bacillus): 36 mm
zone of inhibition at 3000 µg/mL (Pseudomonas solanacearum): 11 mm
zone of inhibition at 3000 µg/mL (Micrococcus luteus; Micrococcus luteus): 24 mm
zone of inhibition at 3000 µg/mL (Escherichia coli [3]; Escherichia coli): 30 mm

[N-]=[N+]=NC1=C(C(=O)O)N2C(=O)[C@@H](NC(=O)Cc3cccs3)[C@H]2SC1 [7β-(2-Thienylacetamido)-3-azido-3-cephem-4-carboxylic acid]
MIC (Staphylococcus aureus [5]; strain S13E): 64 µg/mL (≈ 175 µM)
MIC (Staphylococcus aureus [5]; strain V41, read-out: MIC): 64 µg/mL (≈ 175 µM)
MIC (Staphylococcus aureus [5]; strain X1.1, read-out: MIC): 8 µg/mL (≈ 21.9 µM)
MIC (Staphylococcus aureus [5]; strain X400, read-out: MIC): 128 µg/mL (≈ 350 µM)
MIC (Streptococcus pneumoniae): 0.25 µg/mL (≈ 0.684 µM)
MIC (Escherichia coli [6]): 128 µg/mL (≈ 350 µM)
MIC (Escherichia coli [6]; strain EC14, read-out: MIC): 16 µg/mL (≈ 43.8 µM)
MIC (Escherichia coli [6]; strain N10, read-out: MIC): 64 µg/mL (≈ 175 µM)
MIC (Streptococcus sp. D; Streptococcus, strain X66, read-out: MIC): 128 µg/mL (≈ 350 µM)
MIC (Streptococcus sp. D; strain 2041): 128 µg/mL (≈ 350 µM)
MIC (Proteus): ≥ 128 µg/mL
zone of inhibition at 1000 µg/mL (Staphylococcus aureus [1]; Staphylococcus aureus, concentration 1 mg./ml.): 30 mm
MIC (Klebsiella pneumoniae): 128 µg/mL (≈ 350 µM)
MIC (Klebsiella pneumoniae; strain X26, read-out: MIC): 4 µg/mL (≈ 10.9 µM)
MIC (Klebsiella pneumoniae; strain X68, read-out: MIC): 16 µg/mL (≈ 43.8 µM)
MIC (Pseudomonas): ≥ 128 µg/mL
MIC (Enterobacter aerogenes; Klebsiella aerogenes, strain C32, read-out: MIC): 128 µg/mL (≈ 350 µM)
MIC (Enterobacter aerogenes; strain EB17): 128 µg/mL (≈ 350 µM)
zone of inhibition at 1000 µg/mL (Proteus vulgaris; Proteus vulgaris, concentration 1 mg./ml.): 25 mm
MIC (Salmonella typhi; Salmonella enterica, TYPHI): 16 µg/mL (≈ 43.8 µM)
MIC (Salmonella typhi; strain 1335): 16 µg/mL (≈ 43.8 µM)
zone of inhibition at 1000 µg/mL (Bacillus subtilis; Bacillus subtilis, concentration 1 mg./ml.): 30 mm
MIC (Haemophilus influenzae; strain 76): 4 µg/mL (≈ 10.9 µM)
MIC (Haemophilus influenzae; strain C.L.): 16 µg/mL (≈ 43.8 µM)
MIC ([7]; strain 222): 4 µg/mL (≈ 10.9 µM)
MIC ([7]; strain EP11): 16 µg/mL (≈ 43.8 µM)
zone of inhibition at 1000 µg/mL ([2]; Bacillus, concentration 1 mg./ml.): 20 mm
zone of inhibition at 1000 µg/mL (Pseudomonas solanacearum): 29 mm
detectable zone of inhibition (Pseudomonas aeruginosa): failed to produce a detectable zone of inhibition
detectable zone of inhibition [8]: failed to produce a detectable zone of inhibition
detectable zone of inhibition (Serratia marcescens): failed to produce a detectable zone of inhibition
zone of inhibition at 1000 µg/mL (Salmonella gallinarum): 19 mm
MIC (Enterobacter cloacae; Enterobacter cloacae, strain EB5, read-out: MIC): 128 µg/mL (≈ 350 µM)
MIC (Enterobacter cloacae; strain 265A): 128 µg/mL (≈ 350 µM)
zone of inhibition at 1000 µg/mL (Micrococcus luteus; Micrococcus luteus, concentration 1 mg./ml.): 23 mm
MIC (Streptococcus pyogenes): 0.5 µg/mL (≈ 1.37 µM)
zone of inhibition at 1000 µg/mL (Escherichia coli [3]; Escherichia coli, concentration 1 mg./ml.): 21 mm
MIC (Serratia): ≥ 128 µg/mL
detectable zone of inhibition ([4]; concentration 1 mg./ml.): failed to produce a detectable zone of inhibition
detectable zone of inhibition (Candida albicans; concentration 1 mg./ml.): failed to produce a detectable zone of inhibition
